{"source": "patent EP2525224A1", "about": "“VDAC1-S as a cell marker” (Centre National de la Recherche Scientifique, priority 2011, dated 2012)", "format_in_all_cases": "cell-based", "key": {"LS174 cells [1]": {"test_system": "LS174 cells", "test": "Caspase 3/7 activity (Caspase-Glo 3/7)", "settings": "hypoxic cancer cells", "method": "Quantification of the caspase 3/7 activity was done using a luciferin/luciferase based assay (Caspase-Glo 3/7 kit, Promega) according to the manufacture's instructions. Each condition was performed 8 times and the entire experiment was done 3 times. Significant differences are based on the Student's t test * p < 0.005. To test ABT-737 (Hickman et al., 2008, J Neurophysiol 99, 1515), LS 174 cells were cultured for 72 h in normoxia (N) or hypoxia 1% O2 (H 1 %) and ABT was then added for 24 h at different concentrations (0, 2 or 10 µM). Staurosporine (1 µg/ml) was added (+ Stau) 4 h prior to assay for caspase 3/7 activity, […]"}, "LS174 cells [2]": {"test_system": "LS174 cells", "test": "Flow cytometric analysis of mitochondrial transmembrane potential (ΔΨm) with DiOC6(3)", "settings": "staurosporine 1 µM for 18h", "method": "The following fluorochromes were employed to determine mitochondrial function by cytofluorometry: 3,3'-dihexyloxacarbocyanine iodide [DiOC6(3), 50 nM (Invitrogen) for mitochondrial transmembrane potential (ΔΨm) quantification and propidium iodide (PI; 1 µg/ml (Sigma) for determination of cell viability (all from Molecular Probes). Cells were trypsinized and labeled with the fluorochromes at 37°C, followed by cytofluorometric analysis with a fluorescence-activated cell sorter (FACS) scan (Becton Dickinson). The fluorescence intensity of DiOC6 (3) (which measures ΔΨm) is plotted against the propidium iodide signal ([…]). The CellQuest software (Becton Dickinson) was used for the data analysis."}, "LS174 cells [3]": {"test_system": "LS174 cells", "test": "Immunofluorescence of cytochrome c release", "settings": "with staurosporine", "method": "Cells were grown on glass coverslips and then fixed in 3.3% paraformaldehyde for 30 min at room temperature (RT), permeabilized with 0.2% Triton X-100 for 5 min. Cells were blocked with phosphate-buffered saline (PBS) containing 0.2% gelatin, 2% bovine serum albumin for 30 min at RT, and incubated with anti-rabbit HIF-1α (1/1000 - described in \"Immunoblotting\"), and/or anti-mouse cyto. c (1/500 - BD Bioscience) or anti-rabbit VDAC (1/400 - Abcam) antibodies in PBS for 3 h at RT. After washing, cells were incubated in the presence of a biotinylated anti-mouse secondary antibody conjugated to Alexa 594 (1:400) or anti-rabbit secondary antibody conjugated to Alexa 488 (1:400) for 1 h at RT (Invitrogen). After washing, coverslips were mounted in Cytifluor (Amersham Biosciences), detection of the fluorescence was performed with a Leica DMR fluorescence microscope, and images were recorded using RSImage software."}}, "data": [{"compound": "COc1cc([C@@H]2c3cc4c(cc3[C@@H](O[C@@H]3O[C@@H]5CO[C@@H](C)O[C@H]5[C@H](O)[C@H]3O)[C@H]3COC(=O)[C@H]23)OCO4)cc(OC)c1O", "note": "[etoposide]", "values": [{"measurement": "induced apoptosis", "setting": "LS174 cells [1]", "value": "resistant"}]}, {"compound": "CN[C@@H]1C[C@H]2O[C@@](C)([C@@H]1OC)n1c3ccccc3c3c4c(c5c6ccccc6n2c5c31)C(=O)NC4", "note": "[staurosporine]", "values": [{"measurement": "ΔΨm", "setting": "LS174 cells [2]; hypoxia 1 % O2 for 72h", "value": "remained unaffected"}, {"measurement": "ΔΨm", "setting": "LS174 cells [2]; normoxia", "value": "decreased"}, {"measurement": "release of mitochondrial cytochrome c into the cytoplasm", "setting": "LS174 cells [3]; hypoxic cells with enlarged mitochondria", "value": "do not show release of cyto. c"}, {"measurement": "release of mitochondrial cytochrome c into the cytoplasm", "setting": "LS174 cells [3]; normoxia", "value": "released mitochondrial cytochrome c (cyto. c) into the cytoplasm"}, {"measurement": "induced apoptosis", "setting": "LS174 cells [1]", "value": "resistant"}]}]}
